species: Rattus norvegicus; assay: Up-regulation of ABCA1 protein expression in serum of Wistar rat model of metabolic syndrome fed with high-sugar-fat-diet for 15 weeks followed by high-fat emulsion for 2 weeks by ELISA; type: functional

| SMILES | fold change (FC) |
| --- | --- |
| COc1cc(N)ccc1C(=O)/C=C/c1ccc(C)s1 | 1.5 |
| CCc1ccc(/C=C/C(=O)c2ccc(N)cc2O)cc1 | 1.73 |
| Nc1ccc(C(=O)/C=C/c2ccc(-c3ccccc3)cc2)c(O)c1 | 1.55 |
| Nc1ccc(C(=O)/C=C/c2cccc(Oc3ccccc3)c2)c(O)c1 | 1.76 |
| COc1ccc(-c2ccc(/C=C/C(=O)c3ccc(N)cc3O)s2)cc1 | 1.09 |
| Nc1ccc(C(=O)/C=C/c2csc3ccccc23)c(O)c1 | 2.31 |
| Nc1ccc(C(=O)/C=C/c2c[nH]c3ccccc23)c(O)c1 | 1.76 |
| Nc1ccc(C(=O)/C=C/c2ccc3ccccc3c2)c(O)c1 | 2.64 |
| Nc1ccc(C(=O)/C=C/c2ccc3c(c2)OCO3)c(O)c1 | 1.92 |
| Cc1ccc(CCC(=O)c2ccc(N)cc2O)o1 | 1.9 |
| Nc1ccc(C(=O)CCc2ccc3ccccc3c2)c(O)c1 | 1.34 |
| COc1cc(N(C)C)ccc1C(=O)/C=C/c1ccc(C)o1 | 1.57 |
| COc1cc(N(C)C)ccc1C(=O)/C=C/c1ccc2ccccc2c1 | 1.35 |
| COc1cc(N)ccc1C(=O)/C=C/c1ccc2ccccc2c1 | 0.88 |
| COc1cc(N)ccc1C(=O)/C=C/c1ccc(C)o1 | 1.2 |
| CCOc1ccc(/C=C/C(=O)c2ccc(N)cc2OC)cc1 | 1.06 |
| Cc1ccc(/C=C/C(=O)c2ccc(N(C)C)cc2O)o1 | 1.02 |
| CC(=O)Nc1ccc(C(=O)/C=C/c2ccc(C)s2)c(O)c1 | 1.08 |
| O=c1cc(-c2c[nH]c3ccccc23)oc2cc(O)ccc12 | 1.9 |
| O=c1cc(-c2csc3ccccc23)oc2cc(O)ccc12 | 1.44 |
| O=C(O)c1ccc(-c2cc(=O)c3ccc(O)cc3o2)cc1 | 1.66 |

| SMILES | fold change (FC) |
| --- | --- |
| CC(C)c1ccc(-c2cc(=O)c3ccc(O)cc3o2)cc1 | 1.22 |
| O=c1cc(-c2cccc(Oc3ccccc3)c2)oc2cc(O)ccc12 | 1.17 |
| O=c1cc(-c2ccc(-c3ccccc3)cc2)oc2cc(O)ccc12 | 1.15 |
| COc1ccc(-c2ccc(-c3cc(=O)c4ccc(O)cc4o3)s2)cc1 | 1.03 |
| Cc1ccc(-c2cc(=O)c3ccc(N)cc3o2)o1 | 1.3 |
| Cc1ccc(-c2cc(=O)c3ccc(N)cc3o2)s1 | 1.47 |
| CCOc1ccc(-c2cc(=O)c3ccc(N)cc3o2)cc1 | 1.37 |
| Cc1ccc(/C=C/C(=O)c2ccc(N)cc2O)o1 | 2.09 |
| Cc1ccc(/C=C/C(=O)c2ccc(N)cc2O)s1 | 2 |
| CCOc1ccc(/C=C/C(=O)c2ccc(N)cc2O)cc1 | 1.92 |
| CSc1ccc(/C=C/C(=O)c2ccc(N)cc2O)cc1 | 1.26 |
| COc1cccc(/C=C/C(=O)c2ccc(N)cc2O)c1 | 2.09 |
| Nc1ccc(C(=O)/C=C/c2ccc(F)cc2)c(O)c1 | 1.36 |
| Nc1ccc(C(=O)/C=C/c2ccc(Cl)cc2)c(O)c1 | 1.16 |
| Nc1ccc(C(=O)/C=C/c2cc(C(F)(F)F)cc(C(F)(F)F)c2)c(O)c1 | 1.12 |
| COc1cc(/C=C/C(=O)c2ccc(N)cc2O)cc(OC)c1OC | 0.98 |
| CC(C)c1ccc(/C=C/C(=O)c2ccc(N)cc2O)cc1 | 2.05 |
| O=c1cc(-c2ccc3ccccc3n2)oc2cc(O)ccc12 | 1.36 |
| O=c1cc(-c2ccc3ccccc3c2)oc2cc(O)ccc12 | 1.57 |
| COc1ccc(/C=C/C(=O)c2ccc(N)cc2O)cc1OC | 1.86 |

From ChEMBL document CHEMBL4177718, “Discovery of molecular mechanism of a clinical herbal formula upregulating serum HDL-c levels in treatment of metabolic syndrome by in vivo and computational studies” (2018)
